From US10906873B2, “Substituted cyclic amides as herbicides” (FMC Corporation, priority 2015, dated 2021)

Legend:
Format in all cases: in vivo
[1] = system: barnyardgrass (Echinochloa crus-galli); assay: Test A preemergence, barnyardgrass; details: 0 to 100 scale
Summary of the method: (§1)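 Visual injury ratings, 0 = no effect to 100 = complete control, made versus untreated controls after about 10 d in greenhouse. Chemicals formulated in solvent mixture containing surfactant were sprayed on loam-sand soil after seeding (preemergence) or onto plants at one- to two-leaf stage, 2-10 cm (postemergence).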

kochia (Kochia scoparia) [2] = assay: Test A preemergence, kochia; details: 0 to 100 scale
Summary of the method: as §1

[3] = system: ragweed (common ragweed, Ambrosia elatior); assay: Test A preemergence, ragweed; details: 0 to 100 scale
Summary of the method: as §1

[4] = system: ryegrass, It. (Italian ryegrass, Lolium multiflorum); assay: Test A preemergence, ryegrass, It.; details: 0 to 100 scale
Summary of the method: as §1

[5] = system: foxtail, giant (giant foxtail, Setaria faberii); assay: Test A preemergence, foxtail, giant; details: 0 to 100 scale
Summary of the method: as §1

[6] = system: pigweed (Amaranthus retroflexus); assay: Test A preemergence, pigweed; details: 0 to 100 scale
Summary of the method: as §1

[7] = system: barnyardgrass (Echinochloa crus-galli); assay: Test A postemergence, barnyardgrass; details: 0 to 100 scale
Summary of the method: as §1

kochia (Kochia scoparia) [8] = assay: Test A postemergence, kochia; details: 0 to 100 scale
Summary of the method: as §1

[9] = system: ragweed (common ragweed, Ambrosia elatior); assay: Test A postemergence, ragweed; details: 0 to 100 scale
Summary of the method: as §1

[10] = system: ryegrass, It. (Italian ryegrass, Lolium multiflorum); assay: Test A postemergence, ryegrass, It.; details: 0 to 100 scale
Summary of the method: as §1

[11] = system: foxtail, giant (giant foxtail, Setaria faberii); assay: Test A postemergence, foxtail, giant; details: 0 to 100 scale
Summary of the method: as §1

[12] = system: wheat (Triticum aestivum); assay: Test A postemergence, wheat; details: 0 to 100 scale
Summary of the method: as §1

corn (Zea mays) = assay: Test A postemergence, corn; details: 0 to 100 scale
Summary of the method: as §1

[13] = system: pigweed (Amaranthus retroflexus); assay: Test A postemergence, pigweed; details: 0 to 100 scale
Summary of the method: as §1

[14] = system: blackgrass (Alopecurus myosuroides); assay: Test A postemergence, blackgrass; details: 0 to 100 scale
Summary of the method: as §1

[15] = system: galium (catchweed bedstraw, Galium aparine); assay: Test A postemergence, galium; details: 0 to 100 scale
Summary of the method: as §1

[16] = system: barnyardgrass (Echinochloa crus-galli); assay: Test B flooded paddy test, barnyardgrass; details: Flood, scale of 0 to 100 where 0 is no effect and 100 is complete control, 13 to 15 d
Summary of the method: (§2)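 Ratings use a 0-100 visual scale, where 100 is complete control, and compare treated plants with controls after 13 to 15 d of greenhouse growth. Compound went straight into paddy water kept 3 cm over the soil surface, applied to seedlings at the 2-leaf stage.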

[17] = system: ducksalad (Heteranthera limosa); assay: Test B flooded paddy test, ducksalad; details: Flood, scale of 0 to 100 where 0 is no effect and 100 is complete control, 13 to 15 d
Summary of the method: as §2

rice (Oryza sativa) = assay: Test B flooded paddy test, rice; details: Flood, scale of 0 to 100 where 0 is no effect and 100 is complete control, 13 to 15 d
Summary of the method: as §2

[18] = system: sedge, umbrella (small-flower umbrella sedge, Cyperus difformis); assay: Test B flooded paddy test, sedge, umbrella; details: Flood, scale of 0 to 100 where 0 is no effect and 100 is complete control, 13 to 15 d
Summary of the method: as §2

O=C1NCC(/C=C/c2ccccc2F)C1C(=O)Nc1ccccc1F (stereo not drawn) [Compound 34]
100: Plant response rating, Pigweed ([6]; 500 g ai/ha)
80: Plant response rating, Barnyardgrass ([1]; 500 g ai/ha) | Plant response rating, Foxtail, Giant ([5]; 500 g ai/ha) | Plant response rating, Pigweed ([6]; 125 g ai/ha) | Plant response rating, Foxtail, Giant ([11]; 500 g ai/ha) | Plant response rating, Ducksalad ([17]; 250 g ai/ha)
15: Plant response rating, Rice (rice (Oryza sativa); 250 g ai/ha)
20: Plant response rating, Barnyardgrass ([1]; 125 g ai/ha) | Plant response rating, Foxtail, Giant ([5]; 125 g ai/ha) | Plant response rating, Foxtail, Giant ([11]; 125 g ai/ha) | Plant response rating, Wheat ([12]; 500 g ai/ha)
60: Plant response rating, Barnyardgrass ([7]; 500 g ai/ha) | Plant response rating, Sedge, Umbrella ([18]; 250 g ai/ha)
0: Plant response rating, Kochia (kochia (Kochia scoparia) [2]; 125 g ai/ha) | Plant response rating, Kochia (kochia (Kochia scoparia) [2]; 500 g ai/ha) | Plant response rating, Ragweed ([3]; 125 g ai/ha) | Plant response rating, Ragweed ([3]; 500 g ai/ha) | Plant response rating, Ryegrass, It. ([4]; 125 g ai/ha) | Plant response rating, Ryegrass, It. ([4]; 500 g ai/ha) | Plant response rating, Barnyardgrass ([7]; 125 g ai/ha) | Plant response rating, Kochia (kochia (Kochia scoparia) [8]; 125 g ai/ha) | Plant response rating, Kochia (kochia (Kochia scoparia) [8]; 500 g ai/ha) | Plant response rating, Ragweed ([9]; 125 g ai/ha) | Plant response rating, Ragweed ([9]; 500 g ai/ha) | Plant response rating, Ryegrass, It. ([10]; 125 g ai/ha) | Plant response rating, Ryegrass, It. ([10]; 500 g ai/ha) | Plant response rating, Wheat ([12]; 125 g ai/ha) | Plant response rating, Corn (corn (Zea mays); 125 g ai/ha) | Plant response rating, Corn (corn (Zea mays); 500 g ai/ha) | Plant response rating, Pigweed ([13]; 125 g ai/ha) | Plant response rating, Pigweed ([13]; 500 g ai/ha) | Plant response rating, Blackgrass ([14]; 125 g ai/ha) | Plant response rating, Blackgrass ([14]; 500 g ai/ha) | Plant response rating, Galium ([15]; 125 g ai/ha) | Plant response rating, Galium ([15]; 500 g ai/ha) | Plant response rating, Barnyardgrass ([16]; 250 g ai/ha)

O=C1NCC(Cc2ccc(C(F)(F)F)cc2)C1C(=O)Nc1ccccc1C(F)(F)F (stereo not drawn) [Compound 6]
0: Plant response rating, Barnyardgrass ([1]; 125 g ai/ha) | Plant response rating, Barnyardgrass ([1]; 500 g ai/ha) | Plant response rating, Kochia (kochia (Kochia scoparia) [2]; 125 g ai/ha) | Plant response rating, Kochia (kochia (Kochia scoparia) [2]; 500 g ai/ha) | Plant response rating, Ragweed ([3]; 125 g ai/ha) | Plant response rating, Ragweed ([3]; 500 g ai/ha) | Plant response rating, Ryegrass, It. ([4]; 125 g ai/ha) | Plant response rating, Ryegrass, It. ([4]; 500 g ai/ha) | Plant response rating, Foxtail, Giant ([5]; 125 g ai/ha) | Plant response rating, Foxtail, Giant ([5]; 500 g ai/ha) | Plant response rating, Pigweed ([6]; 125 g ai/ha) | Plant response rating, Pigweed ([6]; 500 g ai/ha) | Plant response rating, Barnyardgrass ([7]; 125 g ai/ha) | Plant response rating, Barnyardgrass ([7]; 500 g ai/ha) | Plant response rating, Kochia (kochia (Kochia scoparia) [8]; 125 g ai/ha) | Plant response rating, Kochia (kochia (Kochia scoparia) [8]; 500 g ai/ha) | Plant response rating, Ragweed ([9]; 125 g ai/ha) | Plant response rating, Ragweed ([9]; 500 g ai/ha) | Plant response rating, Ryegrass, It. ([10]; 125 g ai/ha) | Plant response rating, Ryegrass, It. ([10]; 500 g ai/ha) | Plant response rating, Foxtail, Giant ([11]; 125 g ai/ha) | Plant response rating, Foxtail, Giant ([11]; 500 g ai/ha) | Plant response rating, Wheat ([12]; 125 g ai/ha) | Plant response rating, Wheat ([12]; 500 g ai/ha) | Plant response rating, Corn (corn (Zea mays); 125 g ai/ha) | Plant response rating, Corn (corn (Zea mays); 500 g ai/ha) | Plant response rating, Pigweed ([13]; 125 g ai/ha) | Plant response rating, Pigweed ([13]; 500 g ai/ha) | Plant response rating, Blackgrass ([14]; 125 g ai/ha) | Plant response rating, Blackgrass ([14]; 500 g ai/ha) | Plant response rating, Galium ([15]; 125 g ai/ha) | Plant response rating, Galium ([15]; 500 g ai/ha) | Plant response rating, Barnyardgrass ([16]; 500 g ai/ha) | Plant response rating, Ducksalad ([17]; 500 g ai/ha) | Plant response rating, Rice (rice (Oryza sativa); 500 g ai/ha) | Plant response rating, Sedge, Umbrella ([18]; 500 g ai/ha)

O=C1NCC(Cc2ccc(F)c(F)c2)C1C(=O)Nc1cccc(F)c1F (stereo not drawn) [Compound 12]
0: Plant response rating, Barnyardgrass ([1]; 125 g ai/ha) | Plant response rating, Kochia (kochia (Kochia scoparia) [2]; 125 g ai/ha) | Plant response rating, Kochia (kochia (Kochia scoparia) [2]; 500 g ai/ha) | Plant response rating, Ragweed ([3]; 125 g ai/ha) | Plant response rating, Ragweed ([3]; 500 g ai/ha) | Plant response rating, Ryegrass, It. ([4]; 125 g ai/ha) | Plant response rating, Ryegrass, It. ([4]; 500 g ai/ha) | Plant response rating, Foxtail, Giant ([5]; 125 g ai/ha) | Plant response rating, Pigweed ([6]; 125 g ai/ha) | Plant response rating, Pigweed ([6]; 500 g ai/ha) | Plant response rating, Barnyardgrass ([7]; 125 g ai/ha) | Plant response rating, Barnyardgrass ([7]; 500 g ai/ha) | Plant response rating, Kochia (kochia (Kochia scoparia) [8]; 125 g ai/ha) | Plant response rating, Kochia (kochia (Kochia scoparia) [8]; 500 g ai/ha) | Plant response rating, Ragweed ([9]; 125 g ai/ha) | Plant response rating, Ragweed ([9]; 500 g ai/ha) | Plant response rating, Ryegrass, It. ([10]; 125 g ai/ha) | Plant response rating, Ryegrass, It. ([10]; 500 g ai/ha) | Plant response rating, Foxtail, Giant ([11]; 125 g ai/ha) | Plant response rating, Foxtail, Giant ([11]; 500 g ai/ha) | Plant response rating, Wheat ([12]; 125 g ai/ha) | Plant response rating, Wheat ([12]; 500 g ai/ha) | Plant response rating, Corn (corn (Zea mays); 125 g ai/ha) | Plant response rating, Corn (corn (Zea mays); 500 g ai/ha) | Plant response rating, Pigweed ([13]; 125 g ai/ha) | Plant response rating, Pigweed ([13]; 500 g ai/ha) | Plant response rating, Blackgrass ([14]; 125 g ai/ha) | Plant response rating, Blackgrass ([14]; 500 g ai/ha) | Plant response rating, Galium ([15]; 125 g ai/ha) | Plant response rating, Galium ([15]; 500 g ai/ha) | Plant response rating, Barnyardgrass ([16]; 500 g ai/ha) | Plant response rating, Ducksalad ([17]; 500 g ai/ha) | Plant response rating, Rice (rice (Oryza sativa); 500 g ai/ha) | Plant response rating, Sedge, Umbrella ([18]; 500 g ai/ha)
60: Plant response rating, Barnyardgrass ([1]; 500 g ai/ha) | Plant response rating, Foxtail, Giant ([5]; 500 g ai/ha)

O=C1NCC(/C=C/c2ccc(F)cc2)C1C(=O)Nc1cccc(F)c1F (stereo not drawn) [Compound 31]
50: Plant response rating, Sedge, Umbrella ([18]; 250 g ai/ha)
80: Plant response rating, Ducksalad ([17]; 250 g ai/ha)
60: Plant response rating, Foxtail, Giant ([11]; 500 g ai/ha)
0: Plant response rating, Barnyardgrass ([1]; 125 g ai/ha) | Plant response rating, Kochia (kochia (Kochia scoparia) [2]; 125 g ai/ha) | Plant response rating, Ragweed ([3]; 125 g ai/ha) | Plant response rating, Ragweed ([3]; 500 g ai/ha) | Plant response rating, Ryegrass, It. ([4]; 125 g ai/ha) | Plant response rating, Ryegrass, It. ([4]; 500 g ai/ha) | Plant response rating, Pigweed ([6]; 125 g ai/ha) | Plant response rating, Pigweed ([6]; 500 g ai/ha) | Plant response rating, Kochia (kochia (Kochia scoparia) [8]; 125 g ai/ha) | Plant response rating, Ragweed ([9]; 125 g ai/ha) | Plant response rating, Ryegrass, It. ([10]; 125 g ai/ha) | Plant response rating, Wheat ([12]; 125 g ai/ha) | Plant response rating, Wheat ([12]; 500 g ai/ha) | Plant response rating, Corn (corn (Zea mays); 125 g ai/ha) | Plant response rating, Pigweed ([13]; 125 g ai/ha) | Plant response rating, Pigweed ([13]; 500 g ai/ha) | Plant response rating, Blackgrass ([14]; 125 g ai/ha) | Plant response rating, Blackgrass ([14]; 500 g ai/ha) | Plant response rating, Galium ([15]; 125 g ai/ha)
15: Plant response rating, Rice (rice (Oryza sativa); 250 g ai/ha)
30: Plant response rating, Barnyardgrass ([7]; 125 g ai/ha) | Plant response rating, Kochia (kochia (Kochia scoparia) [8]; 500 g ai/ha) | Plant response rating, Foxtail, Giant ([11]; 125 g ai/ha) | Plant response rating, Galium ([15]; 500 g ai/ha)
70: Plant response rating, Barnyardgrass ([1]; 500 g ai/ha) | Plant response rating, Foxtail, Giant ([5]; 500 g ai/ha) | Plant response rating, Barnyardgrass ([7]; 500 g ai/ha)
40: Plant response rating, Barnyardgrass ([16]; 250 g ai/ha)
20: Plant response rating, Kochia (kochia (Kochia scoparia) [2]; 500 g ai/ha) | Plant response rating, Foxtail, Giant ([5]; 125 g ai/ha) | Plant response rating, Ragweed ([9]; 500 g ai/ha) | Plant response rating, Ryegrass, It. ([10]; 500 g ai/ha) | Plant response rating, Corn (corn (Zea mays); 500 g ai/ha)
